Experimental data reported in DBAASP.
Values after ≈ are worked out from the molar mass of the structure shown. Each block holds one compound with its values, some of them ahead of it.

Tests used:
Assay in all cases: ≥ marks a high value that may be exact or a test limit, other limits are often not marked, values filed in µg/mL are converted to µM
Escherichia coli JW0013 = tested on: Escherichia coli JW0013
[1] = tested on: Pseudomonas aeruginosa ATCC 27853
Pseudomonas aeruginosa = tested on: Pseudomonas aeruginosa
[2] = tested on: Staphylococcus aureus ATCC 25923
[3] = tested on: Staphylococcus epidermidis
Klebsiella pneumoniae = tested on: Klebsiella pneumoniae
[4] = tested on: Escherichia coli ATCC 25922
Escherichia coli = tested on: Escherichia coli
Staphylococcus aureus = tested on: Staphylococcus aureus
[5] = tested on: Klebsiella pneumoniae ATCC 13883
[6] = tested on: Pseudomonas aeruginosa KCTC 1637
[7] = tested on: Staphylococcus aureus KCTC 1621
[8] = tested on: Escherichia coli KCTC 1682
[9] = tested on: Staphylococcus epidermidis KCTC 1917
[10] = tested on: Salmonella typhimurium KCTC 1926

MIC (Escherichia coli JW0013): 1.95 µM (≈ 4.8 µg/mL)
Compound: CC[C@H](C)[C@H](NC(=O)[C@H](CCCN=C(N)N)NC(=O)[C@H](CCCN=C(N)N)NC(=O)[C@@H]1CCCN1C(=O)[C@@H]1CCCN1C(=O)[C@H](CCCN=C(N)N)NC(=O)[C@H](Cc1ccc(O)cc1)NC(=O)[C@H](CCCN=C(N)N)NC(=O)[C@@H]1CCCN1C(=O)[C@H](CC(C)C)NC(=O)[C@H](Cc1ccc(O)cc1)NC(=O)[C@@H]1CCCN1C(=O)[C@@H]1CCCN1C(=O)[C@H](CCCCN)NC(=O)[C@H](CC(=O)O)NC(=O)[C@@H](N)C(C)C)C(=O)N[C@@H](Cc1ccc(O)cc1)C(=O)N[C@@H](CC(N)=O)C(=O)N[C@@H](CCCN=C(N)N)C(N)=O [VDKPPYLPRYRPPRRIYNR]

MIC (Escherichia coli JW0013): 1.4 µM (≈ 3.3 µg/mL)
Compound: CC[C@H](C)[C@H](NC(=O)[C@H](CCCN=C(N)N)NC(=O)[C@H](CCCN=C(N)N)NC(=O)[C@@H]1CCCN1C(=O)[C@@H]1CCCN1C(=O)[C@H](CCCN=C(N)N)NC(=O)[C@@H]1CCCN1C(=O)[C@H](CCCN=C(N)N)NC(=O)[C@@H]1CCCN1C(=O)[C@H](CC(C)C)NC(=O)[C@H](Cc1ccc(O)cc1)NC(=O)[C@@H]1CCCN1C(=O)[C@H](C)NC(=O)[C@H](CCCCN)NC(=O)[C@H](CC(=O)O)NC(=O)[C@@H](N)C(C)C)C(=O)N[C@@H](Cc1ccc(O)cc1)C(=O)N[C@@H](CC(N)=O)C(=O)N[C@@H](CCCN=C(N)N)C(N)=O [VDKAPYLPRPRPPRRIYNR]

MIC [1]: 6.31 µM (≈ 8 µg/mL)
MIC (Pseudomonas aeruginosa): 12.6 µM (≈ 16 µg/mL)
MIC [2]: 6.31 µM (≈ 8 µg/mL)
MIC [3]: 12.6 µM (≈ 16 µg/mL)
MIC (Klebsiella pneumoniae): 6.31 µM (≈ 8 µg/mL)
MIC [4]: 3.16 µM (≈ 4 µg/mL)
MIC (Escherichia coli): 6.31 µM (≈ 8 µg/mL)
MIC (Staphylococcus aureus): 12.6 µM (≈ 16 µg/mL)
MIC [5]: 6.31 µM (≈ 8 µg/mL)
Compound: CC(C)[C@H](NC(=O)CNC(=O)[C@@H](N)Cc1cnc[nH]1)C(=O)N[C@@H](CO)C(=O)NCC(=O)N[C@@H](Cc1cnc[nH]1)C(=O)NCC(=O)N[C@@H](CCC(N)=O)C(=O)N[C@@H](Cc1cnc[nH]1)C(=O)NCC(=O)N[C@H](C(=O)N[C@@H](Cc1cnc[nH]1)C(=O)NCC(=O)O)[C@@H](C)O [HGVSGHGQHGTHG]

MIC (Escherichia coli JW0013): 2.03 µM (≈ 4.8 µg/mL)
Compound: CC[C@H](C)[C@H](NC(=O)[C@H](CCCN=C(N)N)NC(=O)[C@H](CCCN=C(N)N)NC(=O)[C@@H]1CCCN1C(=O)[C@@H]1CCCN1C(=O)[C@H](CCCN=C(N)N)NC(=O)[C@@H]1CCCN1C(=O)[C@H](CCCN=C(N)N)NC(=O)[C@@H]1CCCN1C(=O)[C@H](CC(C)C)NC(=O)[C@H](Cc1ccc(O)cc1)NC(=O)[C@@H]1CCCN1C(=O)[C@@H]1CCCN1C(=O)[C@H](CCCCN)NC(=O)[C@H](CC(=O)O)NC(=O)[C@H](C)N)C(=O)N[C@@H](Cc1ccc(O)cc1)C(=O)N[C@@H](CC(N)=O)C(=O)N[C@@H](CCCN=C(N)N)C(N)=O [ADKPPYLPRPRPPRRIYNR]

MIC [6]: 8 µM (≈ 19 µg/mL)
MIC [7]: 4 µM (≈ 9.48 µg/mL)
MIC [8]: 4 µM (≈ 9.48 µg/mL)
MIC [9]: 2 µM (≈ 4.74 µg/mL)
MIC [10]: 2 µM (≈ 4.74 µg/mL)
Compound: C[C@H](NC(=O)[C@H](Cc1c[nH]c2ccccc12)NC(=O)[C@H](CCCCN)NC(=O)[C@H](CCCN=C(N)N)NC(=O)CNC(=O)[C@H](Cc1c[nH]c2ccccc12)NC(=O)[C@H](CCCN=C(N)N)NC(=O)[C@H](CCCN=C(N)N)NC(=O)[C@H](Cc1c[nH]c2ccccc12)NC(=O)CNC(=O)[C@@H](N)CCCN=C(N)N)C(=O)N[C@@H](Cc1cnc[nH]1)C(=O)NCC(=O)N[C@@H](Cc1c[nH]c2ccccc12)C(=O)N[C@@H](CCCCN)C(=O)N[C@@H](CCCCN)C(=O)N[C@@H](Cc1ccc(O)cc1)C(=O)NCC(N)=O [RGWRRWGRKWAHGWKKYG]

MIC (Escherichia coli JW0013): 0.316 µM (≈ 0.8 µg/mL)
Compound: CC[C@H](C)[C@H](NC(=O)[C@H](CCCN=C(N)N)NC(=O)[C@H](CCCN=C(N)N)NC(=O)[C@@H]1CCCN1C(=O)[C@@H]1CCCN1C(=O)[C@H](CCCN=C(N)N)NC(=O)[C@@H]1CCCN1C(=O)[C@H](CCCN=C(N)N)NC(=O)[C@@H]1CCCN1C(=O)[C@H](CCCN=C(N)N)NC(=O)[C@H](Cc1ccc(O)cc1)NC(=O)[C@H](Cc1cnc[nH]1)NC(=O)[C@H](CCCN=C(N)N)NC(=O)[C@H](CCCCN)NC(=O)[C@H](CC(=O)O)NC(=O)[C@@H](N)C(C)C)C(=O)N[C@@H](Cc1ccc(O)cc1)C(=O)N[C@@H](CC(N)=O)C(=O)N[C@@H](CCCN=C(N)N)C(N)=O [VDKRHYRPRPRPPRRIYNR]

MIC (Escherichia coli JW0013): 2.02 µM (≈ 4.8 µg/mL)
Compound: CC[C@H](C)[C@H](NC(=O)[C@H](CCCN=C(N)N)NC(=O)[C@H](CCCN=C(N)N)NC(=O)[C@@H]1CCCN1C(=O)[C@@H]1CCCN1C(=O)[C@H](CCCN=C(N)N)NC(=O)[C@@H]1CCCN1C(=O)[C@H](Cc1cnc[nH]1)NC(=O)[C@@H]1CCCN1C(=O)[C@H](CC(C)C)NC(=O)[C@H](Cc1ccc(O)cc1)NC(=O)[C@@H]1CCCN1C(=O)[C@@H]1CCCN1C(=O)[C@H](CCCCN)NC(=O)[C@H](CC(=O)O)NC(=O)[C@@H](N)C(C)C)C(=O)N[C@@H](Cc1ccc(O)cc1)C(=O)N[C@@H](CC(N)=O)C(=O)N[C@@H](CCCN=C(N)N)C(N)=O [VDKPPYLPHPRPPRRIYNR]

MIC (Escherichia coli JW0013): 0.647 µM (≈ 1.6 µg/mL)
Compound: CC[C@H](C)[C@H](NC(=O)[C@H](CCCN=C(N)N)NC(=O)[C@H](CCCN=C(N)N)NC(=O)[C@@H]1CCCN1C(=O)[C@@H]1CCCN1C(=O)[C@H](CCCN=C(N)N)NC(=O)[C@H](CCCCN)NC(=O)[C@H](CCCN=C(N)N)NC(=O)[C@@H]1CCCN1C(=O)[C@H](CC(C)C)NC(=O)[C@H](CCCN=C(N)N)NC(=O)[C@@H]1CCCN1C(=O)[C@H](CCCN=C(N)N)NC(=O)[C@H](CCCCN)NC(=O)[C@H](CC(=O)O)NC(=O)[C@@H](N)C(C)C)C(=O)N[C@@H](Cc1ccc(O)cc1)C(=O)N[C@@H](CC(N)=O)C(=O)N[C@@H](CCCN=C(N)N)C(N)=O [VDKRPRLPRKRPPRRIYNR]

MIC (Escherichia coli JW0013): 0.978 µM (≈ 2.4 µg/mL)
Compound: CC[C@H](C)[C@H](NC(=O)[C@H](CCCN=C(N)N)NC(=O)[C@H](CCCN=C(N)N)NC(=O)[C@@H]1CCCN1C(=O)[C@@H]1CCCN1C(=O)[C@H](CCCN=C(N)N)NC(=O)[C@@H]1CCCN1C(=O)[C@H](CCCN=C(N)N)NC(=O)[C@@H]1CCCN1C(=O)[C@H](CC(C)C)NC(=O)[C@H](CCCN=C(N)N)NC(=O)[C@H](Cc1cnc[nH]1)NC(=O)[C@H](CCCCN)NC(=O)[C@H](CCCCN)NC(=O)[C@H](CC(=O)O)NC(=O)[C@@H](N)C(C)C)C(=O)N[C@@H](Cc1ccc(O)cc1)C(=O)N[C@@H](CC(N)=O)C(=O)N[C@@H](CCCN=C(N)N)C(N)=O [VDKKHRLPRPRPPRRIYNR]

MIC (Escherichia coli JW0013): 0.532 µM (≈ 1.3 µg/mL)
Compound: CC[C@H](C)[C@H](NC(=O)[C@H](CCCN=C(N)N)NC(=O)[C@H](CCCN=C(N)N)NC(=O)[C@@H]1CCCN1C(=O)[C@@H]1CCCN1C(=O)[C@H](CCCN=C(N)N)NC(=O)[C@@H]1CCCN1C(=O)[C@H](CCCN=C(N)N)NC(=O)[C@@H]1CCCN1C(=O)[C@H](CC(C)C)NC(=O)[C@H](CCCN=C(N)N)NC(=O)[C@@H]1CCCN1C(=O)[C@H](CCCN=C(N)N)NC(=O)[C@H](CCCCN)NC(=O)[C@H](CC(=O)O)NC(=O)[C@@H](N)C(C)C)C(=O)N[C@@H](Cc1ccc(O)cc1)C(=O)N[C@@H](CC(N)=O)C(=O)N[C@@H](CCCN=C(N)N)C(N)=O [VDKRPRLPRPRPPRRIYNR]

MIC (Escherichia coli JW0013): 0.3 µM (≈ 0.636 µg/mL)
Compound: CC(C)C[C@H](NC(=O)[C@H](CCCN=C(N)N)NC(=O)[C@@H]1CCCN1C(=O)[C@@H]1CCCN1C(=O)[C@H](CCCN=C(N)N)NC(=O)[C@@H]1CCCN1C(=O)[C@H](CCCN=C(N)N)NC(=O)[C@H](CCCN=C(N)N)NC(=O)[C@H](CCCN=C(N)N)NC(=O)[C@@H](N)CCCN=C(N)N)C(=O)N1CCC[C@H]1C(=O)N[C@@H](CCCN=C(N)N)C(=O)N1CCC[C@H]1C(=O)N[C@@H](CCCN=C(N)N)C(=O)N1CCC[C@H]1C(=O)N[C@@H](CCCN=C(N)N)C(=O)O [RRRRPRPPRLPRPRPR]
